Measured values reported in patent publication US20080032918A1, “Mast cell-derived renin” (Cornell Research Foundation, Inc., priority 2003, published 2008).
pIC50: −log10 of the molar value. Entries after “also recorded” stand apart in the source; their conditions may differ.

Assays:
guinea-pig hearts = test: ischemia-reperfusion in guinea pig hearts ex vivo (Langendorff); conditions: 20-min global ischemia, 45-min reperfusion, lodoxamide 10 μM; for ventricular fibrillation during reperfusion: BILA2157 100 nM; for renin overflow into coronary effluent on reperfusion: BILA 2157 100 nM
Experimental: Ischemia-reperfusion in guinea pig hearts ex vivo: Guinea-pig hearts will be perfused for 30 min prior to ischemia. Inamura et al., Circ. Res. 78: 475-481 (1996). Normothermic 20-min global ischemia will be induced by complete cessation of coronary perfusion, followed by 45-min reperfusion. Coronary effluent will be assayed for renin activity and NE.
Guinea-pig hearts were perfused ex vivo at constant pressure in a Langendorff apparatus and subjected to 20-min. stop-flow global ischemia, followed by 45-min. reperfusion (Hatta, E., R. Maruyama, S. J. Marshall, M. Imamura, and R. Levi. Bradykinin promotes ischemic norepinephrine release in guinea pig and human hearts. J. Pharmacol. Exp. Ther. 288: 919-927 (1999)). Surface ECG and coronary flow were continuously monitored; the coronary effluent was assayed for renin activity (i.e., ANG I generated as described herein). There was no detectable renin in the coronary effluent prior to ischemia. With reperfusion, there was significant renin overflow into the coronary effluent accompanied by ventricular fibrillation (VF) (FIG. 12).
Traces in the left panels were recorded at the end of the equilibration period prior to ischemia, showing normal sinus rhythm.

[1] = system: cardiac sympathetic nerve endings; test: norepinephrine release from isolated cardiac sympathetic nerve endings incubated with angiotensinogen; type: cell-based, guinea pig; conditions: nerve endings incubated with BILA2157 10 nM, enalaprilat 30 nM or EXP 3174 10 nM
Description: Preparation ofguinea-pig sympathetic nerve endings: Cardiac sympathetic nerve endings were isolated from guinea-pig hearts as previously described (Seyedi et al., J Pharmacol Exp Ther 290: 656-663, 1999; Seyedi et al., Circ. Res. 81: 774-784, 1997). Spontaneously beating hearts were isolated as previously described by the inventors (Hatta et al., J. Pharmacol. Exp. Ther. 288: 919-927, 1999; Park et al., Circ. Res. 71: 992-1001, 1992). Briefly, male Hartley guinea pigs were anesthetized with CO2 vapor and then exsanguinated. Hearts were perfused through the aorta for 15 min at constant pressure with Ringer's solution at 37° C. (Park et al., Circ. Res. 71: 992-1001, 1992) to exclude blood from the coronary circulation. Hearts were minced in 0.32 M sucrose containing 1 mM EGTA. The minced tissue was then digested with 75 mg collagenase per 10 ml HBS per gm for 1 hr at 37° C. After low speed centrifugation the resulting pellet were suspended in 10 volumes of 0.32 M sucrose and homogenized with a Teflon/glass homogenizer. The homogenate was centrifuged at 650g for 10 min, the pellet was re-homogenized and the homogenate was centrifuged again. The pellet containing cellular debris was discarded, the supernatants from the last two spins were combined, the pooled supernatant was equally subdivided into 4 to 8 tubes and re-centrifuged for 20 min at 20,000g at 4° C. This pellet contains cardiac sympathetic nerve endings. The pellet was resuspended either in HEPES-buffered saline (HBS; 500 μl, normoxic conditions) or in glucose-free HBS, which contained the reducing agent sodium dithionite (500 μl, ischemic conditions), and incubated in the absence or presence of angiotensinogen (1 hr) or other agents for 20 min at 37° C. prior to ischemia (see below). Each suspension was used only once as an independent sample.
Norepinephrine assay: Coronary effluent and synaptosome supernatant will be assayed for NE by HPLC with electrochemical detection (ESA). […]

cardiac mast cells = test: renin in coronary effluent of normoxic Langendorff-perfused hearts challenged with 48/80; set-up: species or system guinea pig; conditions: lodoxamide 10 μM or BILA 2157 100 nM prior to 48/80
Experimental: Renin was measured in the coronary effluent of normoxic Langendorff-perfused guinea-pig hearts, ex vivo. […] When hearts were perfused with the mast-cell stabilizer lodoxamide (FIG. 9B) or the renin inhibitor BILA2157 prior to 48/80 challenge (FIGS. 9A and B), renin overflow was abolished.

[2] = system: isolated normoxic guinea pig hearts; test: chronotropic response and norepinephrine overflow in normoxic isolated hearts challenged with 48/80; conditions: BILA 2157 100 nM, lodoxamide 30 μM
Description: These findings indicate that cardiac mast cells are capable of releasing active renin, which then leads to local formation of ANG II causing norepinephrine exocytosis.

renin = target: T1, renin (Homo sapiens, UniProt P00797); conditions: specific renin inhibitor; cited from earlier work
T1 sequence (P00797 67-406): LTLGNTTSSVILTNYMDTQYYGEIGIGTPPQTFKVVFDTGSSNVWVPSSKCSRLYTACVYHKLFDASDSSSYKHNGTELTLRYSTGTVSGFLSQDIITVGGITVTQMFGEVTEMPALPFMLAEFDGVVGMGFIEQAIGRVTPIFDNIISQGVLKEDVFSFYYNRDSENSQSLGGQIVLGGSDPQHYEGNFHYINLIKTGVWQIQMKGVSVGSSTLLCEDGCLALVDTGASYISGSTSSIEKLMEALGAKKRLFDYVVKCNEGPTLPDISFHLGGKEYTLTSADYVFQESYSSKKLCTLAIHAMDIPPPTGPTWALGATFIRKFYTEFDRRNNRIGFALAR

mast-cell-derived renin = target: T2, mast-cell-derived renin (Homo sapiens, UniProt P00797); test: renin activity (ANG I formed, RIA) of HMC-1 cell releasate incubated with human angiotensinogen; type: biochemical; conditions: BILA2157 100 nM
T2 construct: endogenous in cells; host or cells: HMC-1 human mastocytoma cell line, degranulated with compound 48/80
T2 sequence (P00797 67-406): T1 sequence (P00797 67-406)
Experimental: Renin activity: Pooled confluent flasks of HMC-1 cells, or individual wells of HMC-1 cells, were pelleted and resuspended in HEPES buffer (pH 5.7, 1 mM EDTA) containing the mast-cell degranulating agent compound 48/80 (100 μg/ml or 20 μg/ml; Sigma). After 30 min, cells were spun down and the renin-containing supernatant was incubated with increasing concentrations of human angiotensinogen (Sigma). Renin activity (ANG I formed) was then determined using a GammaCoat Plasma Renin Activity 1251 Radioimmunoassay kit (DiaSorin, Mass.). The selective renin inhibitor BILA2157 was from Boehringer Ingelheim.
The cell releasate was incubated with increasing concentrations of angiotensinogen and then assayed for ANG I formed (i.e. renin activity) by RIA. A concentration-response curve for ANG I formation as a function of angiotensinogen concentration was generated on the HMC-1 releasate. The amount of ANG I formed increased with angiotensinogen concentration. […]
FIG. 4F illustrates that mast-cell-derived renin can be synthesized in mast cells. Releasates were analyzed from the same population of HMC-1 exposed to compound 48/80 (20 μg/ml) 48 hours apart, and analyzed for BILA2157-sensitive renin activity.

Question: For `CC(C)C[C@H](O)[C@H](O)[C@H](CC1CCCCC1)NC(=O)[C@@H](CC(=O)N(CC(=O)N(C)CCc1ccccn1)CC1CCCCC1)Cc1csc(N)n1` [BILA2157], which “ventricular fibrillation during reperfusion” value (guinea-pig hearts) is on record?
Answer: no ventricular fibrillation; also recorded: ventricular fibrillation did not occur

Question: What about the “ventricular fibrillation during reperfusion” value (guinea-pig hearts; listed as BILA 2157) of the same compound?
Answer: prevent ventricular fibrillation; also recorded: essentially no ventricular fibrillation

Question: What about the “renin overflow into coronary effluent on reperfusion” value (guinea-pig hearts) of the same compound?
Answer: abrogated

Question: And the “renin overflow into coronary effluent on reperfusion” value (guinea-pig hearts; listed as BILA 2157)?
Answer: prevented renin release

Question: And the “effect on 48/80 potentiation of norepinephrine release” value [1]?
Answer: abolished

Question: What about the “renin overflow into coronary effluent after 48/80 challenge” value (cardiac mast cells) of the same compound?
Answer: abolished

Question: And the “renin overflow into coronary effluent after 48/80 challenge” value (cardiac mast cells; listed as BILA 2157)?
Answer: markedly diminished

Question: What about the “chronotropic response to 48/80” value [2] of the same compound?
Answer: markedly abbreviated

Question: And the “chronotropic response to 48/80” value ([2]; listed as BILA 2157)?
Answer: diminishes the chronotropic response

Question: And the pIC50 (renin)?
Answer: 9.00

Question: And the “share of ANG I activity due to BILA2157-sensitive renin” value (mast-cell-derived renin; 240 nM angiotensinogen, initially and 48 hours after degranulation with 48/80)?
Answer: about 70%

Question: What about the “share of total ANG I formed that originates from renin (BILA2157-sensitive)” value (mast-cell-derived renin; increasing angiotensinogen concentrations) of the same compound?
Answer: ~70%
